Converted amounts (≈) assume the structure as drawn. Like-named read-outs stand apart in the source and are kept apart here.
Columns and labels:
Experiment in all cases: In vitro antibacterial activity, broth microdilution MIC90
Assay type in all cases: cell-based
[1] = system: Linezolid and Vancomycin Resistant Enterococcus faecium (strain 11); details: Enterococcus faecium
Experimental: (§1) MIC90 was measured by broth microdilution method based on CLSI standards [reference: Clinical and Laboratory Standards Institute Document. (2000) Methods for Dilution Antimicrobial Susceptibility Test for Bacteria that Grow Aerobically-Fifth Edition: M7-A5. CLSI, Villanova, Pa.].
(§2) Activities of 12 strains including Staphylococcus aureus, Methicillin Resistant Staphylococcus aureus, Staphylococcus epidermidis, Methicillin Resistant Staphylococcus epidermidis, Enterococcus faecalis, Vancomycin Resistant Enterococcus faecalis, Linezolid and Vancomycin Resistant Enterococcus faecalis, Enterococcus faecium, Vancomycin Resistant Enterococcus faecium, Linezolid and Vancomycin Resistant Enterococcus faecium, and Moraxella catarrhalis, were measured, and results are shown in Table 1 below.
(§3) The final concentration of test material in the antibacterial test was from 0.063 μg/mL (minimum) to 128 μg/mL (maximum), and the final concentration of DMSO used as an excipient was 2.5% (V/V). Linezolid represented by Formula B below (manufactured by Pfizer) was used as a control and bacterial activity thereof was compared with those of the test materials.

[2] = system: Staphylococcus aureus; details: Staphylococcus aureus
Experimental: as §1, §2, §3

[3] = system: Vancomycin Resistant Enterococcus faecalis; details: Enterococcus faecalis
Experimental: as §1, §2, §3

[4] = system: Methicillin Resistant Staphylococcus aureus; details: Staphylococcus aureus
Experimental: as §1, §2, §3

[5] = system: Linezolid and Vancomycin Resistant Enterococcus faecalis; details: for MIC90: Enterococcus faecalis
Experimental: as §1, §2, §3

[6] = system: Enterococcus faecalis; details: Enterococcus faecalis
Experimental: as §1, §2, §3

[7] = system: Methicillin Resistant Staphylococcus epidermidis; details: Staphylococcus epidermidis
Experimental: as §1, §2, §3

[8] = system: Moraxella catarrhalis; details: Moraxella catarrhalis
Experimental: as §1, §2, §3

[9] = system: Enterococcus faecium; details: Enterococcus faecium
Experimental: as §1, §2, §3

[10] = system: Staphylococcus epidermidis; details: Staphylococcus epidermidis
Experimental: as §1, §2, §3

[11] = system: Vancomycin Resistant Enterococcus faecium; details: Enterococcus faecium
Experimental: as §1, §2, §3

[12] = system: Linezolid and Vancomycin Resistant Enterococcus faecium (strain 10); details: Enterococcus faecium
Experimental: as §1, §2, §3

[13] = strain 11, E. faecium VanA LR, read-out: MIC90
[14] = strain 1, S. aureus, read-out: MIC90
[15] = strain 6, E. faecalis VanA, read-out: MIC90
[16] = strain 2, S. aureus MR, read-out: MIC90
[17] = strain 7, E. faecalis VanA LR, read-out: MIC90
[18] = strain 5, E. faecalis, read-out: MIC90
[19] = strain 4, S. epidermidis MR, read-out: MIC90
[20] = strain 8, E. faecium, read-out: MIC90
[21] = strain 3, S. epidermidis, read-out: MIC90
[22] = strain 9, E. faecium VanA, read-out: MIC90
[23] = strain 10, E. faecium VanA LR, read-out: MIC90

| SMILES | MIC90 [1] [µg/mL] | MIC90 [2] [µg/mL] | MIC90 [3] [µg/mL] | MIC90 [4] [µg/mL] | MIC90 [5] [µg/mL] | MIC90 [6] [µg/mL] | MIC90 [7] [µg/mL] | MIC90 [8] [µg/mL] | MIC90 [9] [µg/mL] | MIC90 [10] [µg/mL] | MIC90 [11] [µg/mL] | MIC90 [12] [µg/mL] | other results |
| --- | --- | --- | --- | --- | --- | --- | --- | --- | --- | --- | --- | --- | --- |
| CC(=O)NC[C@H]1CN(c2ccc(-c3ccc(N4C=NN(C=O)CC4)nc3)c(F)c2)C(=O)O1 [Compound 1] | – | – | – | – | – | – | – | – | – | – | – | – | MIC90 [1, 13]: 2 µg/mL (≈ 4.54 µM); MIC90 [2, 14]: 0.5 µg/mL (≈ 1.14 µM); MIC90 [3, 15]: 0.5 µg/mL (≈ 1.14 µM); MIC90 [4, 16]: 1 µg/mL (≈ 2.27 µM); MIC90 [5, 17]: 2 µg/mL (≈ 4.54 µM); MIC90 [6, 18]: 0.5 µg/mL (≈ 1.14 µM); MIC90 [7, 19]: 1 µg/mL (≈ 2.27 µM); MIC90 ([8]; strain 12, M. catarrhalis, read-out: MIC90): 2 µg/mL (≈ 4.54 µM); MIC90 [9, 20]: 0.5 µg/mL (≈ 1.14 µM); MIC90 [10, 21]: 0.25 µg/mL (≈ 0.568 µM); MIC90 [11, 22]: 0.5 µg/mL (≈ 1.14 µM); MIC90 [12, 23]: 2 µg/mL (≈ 4.54 µM) |
| CC(=O)NC[C@H]1CN(c2ccc(-c3ccc(N4C=NNCC4)nc3)c(F)c2)C(=O)O1 [Compound 2] | 2 (≈ 4.85 µM) | 0.5 (≈ 1.21 µM) | 0.5 (≈ 1.21 µM) | 1 (≈ 2.42 µM) | 2 (≈ 4.85 µM) | 0.5 (≈ 1.21 µM) | 1 (≈ 2.42 µM) | 4 (≈ 9.7 µM) | 0.5 (≈ 1.21 µM) | 0.5 (≈ 1.21 µM) | 0.5 (≈ 1.21 µM) | 2 (≈ 4.85 µM) | – |
| CC(=O)NC[C@H]1CN(c2ccc(-c3ccc(N4C=NN(C)CC4)nc3)c(F)c2)C(=O)O1 [Compound 3] | 0.5 (≈ 1.17 µM) | 0.063 (≈ 0.148 µM) | 0.125 (≈ 0.293 µM) | 0.5 (≈ 1.17 µM) | 0.5 (≈ 1.17 µM) | 0.25 (≈ 0.586 µM) | 0.5 (≈ 1.17 µM) | 0.25 (≈ 0.586 µM) | 0.063 (≈ 0.148 µM) | 0.125 (≈ 0.293 µM) | 0.125 (≈ 0.293 µM) | 0.5 (≈ 1.17 µM) | antibacterial activity against linezolid-resistant bacteria (in words) ([5]; Enterococcus faecalis and Enterococcus faecium which are resistant to linezolid): very high antibacterial activity |
| CCN1CCN(c2ccc(-c3ccc(N4C[C@H](CNC(C)=O)OC4=O)cc3F)cn2)C=N1 [Compound 4] | 2 (≈ 4.54 µM) | 0.5 (≈ 1.14 µM) | 0.5 (≈ 1.14 µM) | 1 (≈ 2.27 µM) | 2 (≈ 4.54 µM) | 0.5 (≈ 1.14 µM) | 1 (≈ 2.27 µM) | 2 (≈ 4.54 µM) | 0.5 (≈ 1.14 µM) | 0.5 (≈ 1.14 µM) | 0.5 (≈ 1.14 µM) | 2 (≈ 4.54 µM) | – |
| CCOC(=O)CN1CCN(c2ccc(-c3ccc(N4C[C@H](CNC(C)=O)OC4=O)cc3F)cn2)C=N1 [Compound 5] | 2 (≈ 4.01 µM) | 0.5 (≈ 1 µM) | 0.5 (≈ 1 µM) | 1 (≈ 2.01 µM) | 2 (≈ 4.01 µM) | 0.5 (≈ 1 µM) | 1 (≈ 2.01 µM) | – | 0.5 (≈ 1 µM) | 0.5 (≈ 1 µM) | 0.5 (≈ 1 µM) | 2 (≈ 4.01 µM) | – |
| CC(=O)NC[C@H]1CN(c2ccc(-c3ccc(N4C=NN(CCO)CC4)nc3)c(F)c2)C(=O)O1 [Compound 6] | – | – | – | – | – | – | – | – | – | – | – | – | MIC90 [1, 13]: 2 µg/mL (≈ 4.38 µM); MIC90 [2, 14]: 0.5 µg/mL (≈ 1.1 µM); MIC90 [3, 15]: 0.5 µg/mL (≈ 1.1 µM); MIC90 [4, 16]: 1 µg/mL (≈ 2.19 µM); MIC90 [5, 17]: 2 µg/mL (≈ 4.38 µM); MIC90 [6, 18]: 0.5 µg/mL (≈ 1.1 µM); MIC90 [7, 19]: 1 µg/mL (≈ 2.19 µM); MIC90 [9, 20]: 0.5 µg/mL (≈ 1.1 µM); MIC90 [10, 21]: 0.5 µg/mL (≈ 1.1 µM); MIC90 [11, 22]: 0.5 µg/mL (≈ 1.1 µM); MIC90 [12, 23]: 2 µg/mL (≈ 4.38 µM) |
| C=CCN1CCN(c2ccc(-c3ccc(N4C[C@H](CNC(C)=O)OC4=O)cc3F)cn2)C=N1 [Compound 7] | 4 (≈ 8.84 µM) | 0.5 (≈ 1.1 µM) | 1 (≈ 2.21 µM) | 1 (≈ 2.21 µM) | 4 (≈ 8.84 µM) | 0.5 (≈ 1.1 µM) | 1 (≈ 2.21 µM) | 2 (≈ 4.42 µM) | 1 (≈ 2.21 µM) | 0.5 (≈ 1.1 µM) | 1 (≈ 2.21 µM) | 4 (≈ 8.84 µM) | – |
| C#CCN1CCN(c2ccc(-c3ccc(N4C[C@H](CNC(C)=O)OC4=O)cc3F)cn2)C=N1 [Compound 8] | 4 (≈ 8.88 µM) | 0.25 (≈ 0.555 µM) | 1 (≈ 2.22 µM) | 1 (≈ 2.22 µM) | 4 (≈ 8.88 µM) | 0.5 (≈ 1.11 µM) | 1 (≈ 2.22 µM) | 2 (≈ 4.44 µM) | 1 (≈ 2.22 µM) | 0.5 (≈ 1.11 µM) | 0.5 (≈ 1.11 µM) | 4 (≈ 8.88 µM) | – |

Reference: US8846669B2, “Oxazolidinone derivative and medical composition containing same” (Legochem Biosciences, Inc., priority 2011, dated 2014)
